Reference: the NIST ThermoML archive (doi:10.1007/s10765-008-0535-5)
± gives the expanded uncertainty stated by the source.

Details: Liquid, Pycnometric method

FCF [difluoromethane]
Details | mass density [kg/m3]
268.15 K, 8268 kPa | 1093.5 ± 1.8
268.15 K, 8502 kPa | 1093.5 ± 1.8
269.15 K, 9280 kPa | 1093.3 ± 1.8
269.15 K, 9512 kPa | 1093.3 ± 1.8
270.15 K, 10291 kPa | 1093.2 ± 1.8
270.15 K, 10521 kPa | 1093.2 ± 1.8
271.15 K, 11302 kPa | 1093 ± 1.8
271.15 K, 11531 kPa | 1093 ± 1.8
272.15 K, 12312 kPa | 1092.9 ± 1.8
272.15 K, 12421 kPa | 1092.9 ± 1.8
272.15 K, 12540 kPa | 1092.9 ± 1.8
273.15 K, 13321 kPa | 1092.7 ± 1.8
273.15 K, 13429 kPa | 1092.8 ± 1.8
273.15 K, 13551 kPa | 1092.7 ± 1.8
274.15 K, 14330 kPa | 1092.6 ± 1.8
274.15 K, 14438 kPa | 1092.6 ± 1.8
274.15 K, 14560 kPa | 1092.6 ± 1.8
275.15 K, 15337 kPa | 1092.4 ± 1.8
275.15 K, 15444 kPa | 1092.4 ± 1.8
275.15 K, 15568 kPa | 1092.4 ± 1.8
276.15 K, 16344 kPa | 1092.3 ± 1.8
276.15 K, 16452 kPa | 1092.3 ± 1.8
276.15 K, 16577 kPa | 1092.3 ± 1.8
277.15 K, 17350 kPa | 1092.1 ± 1.8
277.15 K, 17457 kPa | 1092.1 ± 1.8
277.15 K, 17583 kPa | 1092.1 ± 1.8
278.15 K, 18354 kPa | 1092 ± 1.8
278.15 K, 18462 kPa | 1092 ± 1.8
278.15 K, 18589 kPa | 1092 ± 1.8
279.15 K, 19358 kPa | 1091.8 ± 1.8
279.15 K, 19465 kPa | 1091.8 ± 1.8
279.15 K, 19595 kPa | 1091.8 ± 1.8
280.15 K, 20361 kPa | 1091.7 ± 1.8
280.15 K, 20468 kPa | 1091.7 ± 1.8
280.15 K, 20598 kPa | 1091.7 ± 1.8
281.15 K, 21363 kPa | 1091.5 ± 1.8
281.15 K, 21470 kPa | 1091.5 ± 1.8
281.15 K, 21601 kPa | 1091.5 ± 1.8
282.15 K, 22363 kPa | 1091.4 ± 1.8
282.15 K, 22472 kPa | 1091.4 ± 1.8
282.15 K, 22602 kPa | 1091.4 ± 1.8
283.15 K, 23363 kPa | 1091.2 ± 1.8
283.15 K, 23473 kPa | 1091.2 ± 1.8
283.15 K, 23603 kPa | 1091.2 ± 1.8
284.15 K, 24362 kPa | 1091.1 ± 1.8
284.15 K, 24472 kPa | 1091.1 ± 1.8
284.15 K, 24606 kPa | 1091 ± 1.8
285.15 K, 25359 kPa | 1090.9 ± 1.8
285.15 K, 25470 kPa | 1090.9 ± 1.8
285.15 K, 25603 kPa | 1090.9 ± 1.8
286.15 K, 26356 kPa | 1090.8 ± 1.8
286.15 K, 26466 kPa | 1090.8 ± 1.8
286.15 K, 26598 kPa | 1090.7 ± 1.8
287.15 K, 27351 kPa | 1090.6 ± 1.8
287.15 K, 27461 kPa | 1090.6 ± 1.8
287.15 K, 27594 kPa | 1090.6 ± 1.8
288.15 K, 28345 kPa | 1090.4 ± 1.8
288.15 K, 28454 kPa | 1090.4 ± 1.8
288.15 K, 28588 kPa | 1090.4 ± 1.8
289.15 K, 5774 kPa | 1015.9 ± 1.6
289.15 K, 5835 kPa | 1015.9 ± 1.6
289.15 K, 29338 kPa | 1090.3 ± 1.8
289.15 K, 29446 kPa | 1090.3 ± 1.8
289.15 K, 29581 kPa | 1090.3 ± 1.8
290.15 K, 6570 kPa | 1015.8 ± 1.6
290.15 K, 6631 kPa | 1015.8 ± 1.6
291.15 K, 7365 kPa | 1015.7 ± 1.6
291.15 K, 7428 kPa | 1015.7 ± 1.6
292.15 K, 8161 kPa | 1015.6 ± 1.6
292.15 K, 8224 kPa | 1015.5 ± 1.6
293.15 K, 8956 kPa | 1015.5 ± 1.6
293.15 K, 9019 kPa | 1015.4 ± 1.6
294.15 K, 9752 kPa | 1015.3 ± 1.6
294.15 K, 9815 kPa | 1015.3 ± 1.6
295.15 K, 10546 kPa | 1015.2 ± 1.6
295.15 K, 10610 kPa | 1015.2 ± 1.6
296.15 K, 11341 kPa | 1015.1 ± 1.6
296.15 K, 11405 kPa | 1015.1 ± 1.6
297.15 K, 12135 kPa | 1015 ± 1.6
297.15 K, 12199 kPa | 1014.9 ± 1.6
298.15 K, 12929 kPa | 1014.9 ± 1.6
298.15 K, 12993 kPa | 1014.8 ± 1.6
299.15 K, 13723 kPa | 1014.7 ± 1.6
299.15 K, 13787 kPa | 1014.7 ± 1.6
300.15 K, 14517 kPa | 1014.6 ± 1.6
300.15 K, 14581 kPa | 1014.6 ± 1.6
301.15 K, 15309 kPa | 1014.5 ± 1.6
301.15 K, 15374 kPa | 1014.4 ± 1.6
302.15 K, 16102 kPa | 1014.4 ± 1.6
302.15 K, 16167 kPa | 1014.3 ± 1.6
303.15 K, 16894 kPa | 1014.2 ± 1.6
303.15 K, 16960 kPa | 1014.2 ± 1.6
304.15 K, 17685 kPa | 1014.1 ± 1.6
304.15 K, 17752 kPa | 1014.1 ± 1.6
305.15 K, 18476 kPa | 1014 ± 1.6
305.15 K, 18543 kPa | 1014 ± 1.6
306.15 K, 19267 kPa | 1013.9 ± 1.6
306.15 K, 19335 kPa | 1013.8 ± 1.6
307.15 K, 20125 kPa | 1013.7 ± 1.6
308.15 K, 20848 kPa | 1013.6 ± 1.6
308.15 K, 20915 kPa | 1013.6 ± 1.6
309.15 K, 21639 kPa | 1013.5 ± 1.6
309.15 K, 21704 kPa | 1013.4 ± 1.6
310.15 K, 22429 kPa | 1013.4 ± 1.6
310.15 K, 22492 kPa | 1013.3 ± 1.6
311.15 K, 23217 kPa | 1013.3 ± 1.6
311.15 K, 23281 kPa | 1013.2 ± 1.6
312.15 K, 24005 kPa | 1013.2 ± 1.6
312.15 K, 24068 kPa | 1013.1 ± 1.6
313.15 K, 24793 kPa | 1013 ± 1.6
313.15 K, 24855 kPa | 1012.9 ± 1.6
314.15 K, 25579 kPa | 1012.9 ± 1.6
314.15 K, 25641 kPa | 1012.8 ± 1.6
315.15 K, 26364 kPa | 1012.8 ± 1.6
315.15 K, 26427 kPa | 1012.7 ± 1.6
316.15 K, 27149 kPa | 1012.7 ± 1.6
316.15 K, 27212 kPa | 1012.6 ± 1.6
317.15 K, 27934 kPa | 1012.5 ± 1.6
317.15 K, 27996 kPa | 1012.4 ± 1.6
318.15 K, 28719 kPa | 1012.4 ± 1.6
318.15 K, 28779 kPa | 1012.3 ± 1.6
